Consider five molecules from PMC3912015, “Synthetic Multivalent Antifungal Peptides Effective against Fungi” (PLoS ONE, 2014).

For data set [1], the system named is C. albicans ATCC10231. In words: microbe, parasite or virus in culture. In kind it is cell-based. To be noted: ATCC10231, 48 h. The procedure:
(§1) The yeast strains were cultivated and suspended in Sabouraud’s Dextrose (SD) broth diluted to one sixth at a starting OD600 = ∼0.08 in a flat-bottomed microtitre plate. A serial dilution of peptide in the same broth was mixed with the inoculum to give a final peptide concentration of 0.4–22 µM. The antifungal activity was assessed by monitoring the OD600 in cycles of 30 minutes and an orbital shaking at 100 rpm using an Infinite M200 microplate reader (Tecan Group Ltd., Switzerland) for 24/48 h at 37°C. Cultures without peptides were used as positive controls and broth alone or with 22 µM peptide served as negative controls. The minimum concentration required for complete inhibition was assessed by both visible observations as well as by measuring the OD600 and taken as the MIC. Each experiment was repeated in triplicates. For studying the effects of metal ions, SD broth was adjusted with appropriate concentrations of salts to yield a final concentration of 100 and 135 mM for NaCl and KCl and 0.5–2 mM for CaCl2 and MgCl2. MIC determinations were carried out as described above. C. albicans ATCC10231 cells and salts in broth were taken as a positive control. Salts alone (NaCl, KCl, and CaCl2 and MgCl2) in broth or with 22 µM peptide served as a negative control. The effect of 5% human serum on the activities of B4010 against two C. albicans clinical isolates was determined. The human male serum was centrifuged at 13,000 rpm for 10 mins in order to remove the lipids and the supernatant was collected. The MIC values against clinical isolates of C. albicans 2672R and C. albicans 1976R were determined both in standard medium (SD broth) as well as in standard medium containing 5% serum supernatant as before.

Data set [2] deals with C. albicans ATCC2091. Description: microbe, parasite or virus in culture. The following applies: ATCC2091, 48 h. It is filed as cell-based. The procedure:
as §1

Data set [3] relates to C. albicans ATCC24433. Description: microbe, parasite or virus in culture. To be noted: ATCC24433, 48 h. In kind it is cell-based. The procedure: as §1
Data set [4] relates to C. albicans DF1976R. In words: microbe, parasite or virus in culture. In kind it is cell-based. The following applies: DF1976R, 48 h. The procedure:
as §1

The test system of data set [5] is C. albicans DF2672R. In words: microbe, parasite or virus in culture. To be noted: DF2672R, 48 h. It is filed as cell-based. The procedure: as §1
Data set [6] concerns F. solani ATCC36031. Description: microbe, parasite or virus in culture. It is filed as cell-based. To be noted: ATCC36031, 48 h.
Data set [7] is classed as biochemical. The procedure: Small unilamellar vesicles (SUVs) were prepared using PC/PE/PI or PS lipids (5∶2.5∶2.5) containing 15 wt% ergosterol or PC/Cholesterol (10∶1). For the preparation of PC/PE/PI or PS/Erg SUV, the lipids were dissolved in chloroform/methanol (2∶1, v/v) in a glass tube. Ergosterol was dissolved in same solvent and added to lipid mixture to make final ergosterol content of 15 wt%. The Lipid-ergosterol mixture was dried using nitrogen gas to form lipid layer. The film was hydrated in a buffer containing 20 mM PBS (pH 7), vortexed and sonicated. Each cycle of sonication (5 sec, 40°C) was followed by freezing in liquid nitrogen and thawing on a water bath kept at 37°C. The procedure was repeated 5–6 times until an optically clear dispersion appeared. The SUV was divided into two parts. To the first part 50 mM calcein was added and incubated for 1 h. The excess calcein was removed by injecting 100 µL of the calcien-loaded SUV’s into a Ultrahydrogel™ 250 (7.8 mm × 300 mm) column equilibrated with 20 mM PBS (pH 7.0) and eluted isochratically at a flow rate of 1 mL/min for 1.5 column volumes. The calcein-loaded liposomes were mixed with calcein-free liposome (1∶1) to adjust final liposome concentration. Peptide concentration was added to obtain 1∶30 or 1∶15 peptide:liposome ratio. Changes in the fluorescence signal after addition of peptide or Triton X-100 was measured on a PTI spectrofluorometer, using an excitation wavelength of 480 nm and emission wavelength of 512 nm. The Percentage calcein released at each time point was calculated using the equation, [drawing 1]
Where A0 is the observed fluorescence intensity upon addition of peptides, Amin is the average intensity at the baseline (before peptide addition), Amax is the average intensity at the saturation phase after adding 1% Triton X-100. Similar protocol was followed for the preparation of PC/Cholesterol SUVs.

Data set [8] is described as follows: in vitro. It is filed as cell-based, human. The following applies: human. The procedure: (§2) Immortalized normal human conjunctival epithelial cells (IOBANHC) were a gift from Yolanda Diebold at the University of Valladolid, Spain [31]. IOBA-NHC cells were cultured under standard conditions (humidified atmosphere of 5% CO2 at 37°C) in DMEM/F12 supplemented with 1 µg/ml bovine pancreas insulin, 2 ng/ml mouse epidermal growth factor, 0.1 µg/ml cholera toxin, 5 µg/ml hydrocortisone, 10% fetal bovine serum (FBS), 50 UI/ml penicillin, and 50 UI/ml streptomycin. Cells from passages 50–80 were used in all experiments. Every day, normal culture development was observed by phase-contrast microscopy. Cells were removed by gentle trypsin incubation at confluence and counted. They were seeded into 96 well culture plates (Corning, Schiphol-Rijk, The Netherlands) for microtitration analysis of flow cytotoxicity assay (∼10,000 cells/well). Cultures were kept at 37°C for 24 h. Subconfluent cells (culture surface covering nearly 70%) were then exposed to various peptide concentrations (0.22–225 µM). Cytotoxicity was measured periodically using MultiTox-Fluor Multiplex assay kit (Promega, WI, USA) by measuring the AFC fluorescence (λex = 485 and λem = 520 nm). We report the cell viability after 24 h incubation of the cells with the peptides since there was no detectable toxicity even after 8 h of incubation.

Data set [9] relates to human conjunctival epithelial cells (IOBA-NHC). In words: in vitro. It is filed as cell-based. The following applies: 24 h. The procedure: as §2

≈ marks a conversion by molar mass, not a printed value. Like-named read-outs stand apart in the source and are kept apart here. Bridge positions count the residues as written; N and C are the ends. Ends that are not written are not given here. Peptide text beside a SMILES is read from it. I, II: the chains in the order shown.

In the case of `CC(C)[C@H](NC(=O)[C@H](CCCCN)NC(=O)[C@H](CCCNC(=N)N)NC(=O)CNC(=O)[C@@H](N)CCCNC(=N)N)C(=O)N[C@H](C(=O)N[C@@H](CCCNC(=N)N)C(=O)N[C@@H](CCCNC(=N)N)C(=O)NCCCC[C@H](NC(=O)[C@H](CCCNC(=N)N)NC(=O)[C@H](CCCNC(=N)N)NC(=O)[C@@H](NC(=O)[C@@H](NC(=O)[C@H](CCCCN)NC(=O)[C@H](CCCNC(=N)N)NC(=O)CNC(=O)[C@@H](N)CCCNC(=N)N)C(C)C)C(C)C)C(=O)N[C@@H](CCCCN)C(=O)O)C(C)C` [B2088] (I: H-RGRKVVRRKK-OH / II: H-RGRKVVRR; amide I:9-II:C; N-terminus and C-terminus assumed), the MIC is 5.5 µM (≈ 12.6 µg/mL) in data set [1] (read-out: MIC); 1.4 µM (≈ 3.21 µg/mL) in data set [2] (read-out: MIC); 2.7 µM (≈ 6.19 µg/mL) in data set [3] (read-out: MIC); 0.8 µM (≈ 1.83 µg/mL) in data set [4] (read-out: MIC); 0.8 µM (≈ 1.83 µg/mL) in [5] (read-out: MIC); 10.9 µM (≈ 25 µg/mL) in data set [6]. Further, the “calcein release relative to B4010” value in [7] is given as “decreased calcein release”.

By viability is commonly meant a read-out of living cells in per cent, often relative to untreated cells. A high value points to less harm to the cells. Usually EC50 stands for the concentration giving half of the maximal effect. Read a low EC50 as higher potency in that assay. For the molecule `CC(C)[C@H](NC(=O)[C@H](CCCCN)NC(=O)[C@H](CCCNC(=N)N)NC(=O)CNC(=O)[C@H](C)N)C(=O)N[C@H](C(=O)N[C@@H](CCCNC(=N)N)C(=O)N[C@@H](CCCNC(=N)N)C(=O)NCCCC[C@H](NC(=O)[C@H](CCCNC(=N)N)NC(=O)[C@H](CCCNC(=N)N)NC(=O)[C@@H](NC(=O)[C@@H](NC(=O)[C@H](CCCCN)NC(=O)[C@H](CCCNC(=N)N)NC(=O)CNC(=O)[C@H](C)N)C(C)C)C(C)C)C(=O)NCCCC[C@H](NC(=O)[C@H](CCCCNC(=O)[C@H](CCCNC(=N)N)NC(=O)[C@H](CCCNC(=N)N)NC(=O)[C@@H](NC(=O)[C@@H](NC(=O)[C@H](CCCCN)NC(=O)[C@H](CCCNC(=N)N)NC(=O)CNC(=O)[C@H](C)N)C(C)C)C(C)C)NC(=O)[C@H](CCCNC(=N)N)NC(=O)[C@H](CCCNC(=N)N)NC(=O)[C@@H](NC(=O)[C@@H](NC(=O)[C@H](CCCCN)NC(=O)[C@H](CCCNC(=N)N)NC(=O)CNC(=O)[C@H](C)N)C(C)C)C(C)C)C(=O)N[C@@H](CCCCN)C(=O)O)C(C)C` [B4010_R1A] (I: H-AGRKVVRRKKK-OH / II: H-AGRKVVRRK / III: H-AGRKVVRR / IV: H-AGRKVVRR; amide I:9-IV:C, I:10-II:C, II:9-III:C; N-terminus and C-terminus assumed), the MIC in data set [1] (read-out: MIC in µM against Ca 10231) was determined as 5.9 µM (≈ 24.9 µg/mL); in [2] (read-out: MIC in µM against Ca 2091), 1.5 µM (≈ 6.33 µg/mL); in data set [3] (read-out: MIC in µM against Ca 24433), 5.9 µM (≈ 24.9 µg/mL); in data set [4] (read-out: MIC in µM against Ca DF1976R), 0.75 µM (≈ 3.17 µg/mL); in [5] (read-out: MIC in µM against Ca 2672R) it was 1.5 µM (≈ 6.33 µg/mL). Moreover, the viability at 24 h, 237 µM in [8] was found to be 67.6%. In addition, the EC50 in [9] is greater than 237 µM.

Regarding `CC(C)[C@H](N)C(=O)N[C@@H](CCCNC(=N)N)C(=O)NCC(=O)N[C@@H](CCCNC(=N)N)C(=O)N[C@H](C(=O)N[C@@H](CCCNC(=N)N)C(=O)N[C@@H](CCCCN)C(=O)N[C@@H](CCCNC(=N)N)C(=O)NCCCC[C@H](NC(=O)[C@H](CCCNC(=N)N)NC(=O)[C@H](CCCCN)NC(=O)[C@H](CCCNC(=N)N)NC(=O)[C@@H](NC(=O)[C@H](CCCNC(=N)N)NC(=O)CNC(=O)[C@H](CCCNC(=N)N)NC(=O)[C@@H](N)C(C)C)C(C)C)C(=O)NCCCC[C@H](NC(=O)[C@H](CCCCNC(=O)[C@H](CCCNC(=N)N)NC(=O)[C@H](CCCCN)NC(=O)[C@H](CCCNC(=N)N)NC(=O)[C@@H](NC(=O)[C@H](CCCNC(=N)N)NC(=O)CNC(=O)[C@H](CCCNC(=N)N)NC(=O)[C@@H](N)C(C)C)C(C)C)NC(=O)[C@H](CCCNC(=N)N)NC(=O)[C@H](CCCCN)NC(=O)[C@H](CCCNC(=N)N)NC(=O)[C@@H](NC(=O)[C@H](CCCNC(=N)N)NC(=O)CNC(=O)[C@H](CCCNC(=N)N)NC(=O)[C@@H](N)C(C)C)C(C)C)C(=O)N[C@@H](CCCCN)C(=O)O)C(C)C` [Sc_B4010] (I: H-VRGRVRKRKKK-OH / II: H-VRGRVRKRK / III: H-VRGRVRKR / IV: H-VRGRVRKR; amide I:9-IV:C, I:10-II:C, II:9-III:C; N-terminus and C-terminus assumed), the MIC came to 5.6 µM (≈ 25.6 µg/mL) in data set [1] (read-out: MIC); 2.7 µM (≈ 12.3 µg/mL) in data set [2] (read-out: MIC); 5.6 µM (≈ 25.6 µg/mL) in [3] (read-out: MIC); 0.8 µM (≈ 3.65 µg/mL) in data set [4] (read-out: MIC); 0.8 µM (≈ 3.65 µg/mL) in data set [5] (read-out: MIC). Further, the “calcein release relative to B4010” value in [7] is given as “decreased calcein release”.

With RGRKVVRRKK [Monomer], the MIC in [1] (read-out: MIC) was 78 µM; in [5] (read-out: MIC) it was 78 µM; in data set [6] it was greater than 78 µM.

As to RGRKVVRRKKRRVVKRGR [Linear Retrodimer], the MIC in [1] (read-out: MIC) was 22 µM; in [2] (read-out: MIC), 11 µM; in data set [3] (read-out: MIC), 5.5 µM; in data set [4] (read-out: MIC) it was 2.7 µM; in [5] (read-out: MIC), 2.7 µM.
